According to patent EP0595557A1, “New substituted azetidinones as anti-inflammatory and antidegenerative agents” (MERCK & CO. INC., priority 1992, dated 1994):

These compounds were tested against T1, Human Polymorphonuclear Leukocyte Elastase (Homo sapiens, UniProt P08246) (assay: Enzyme assay for inhibition of human polymorphonuclear leukocyte elastase via hydrolysis of Boc-AAPAN or Boc-AAPVN). Conditions: pH 7.5, second order rate constant for inactivation of the enzyme, expressed to the nearest thousand, read-out: Kobs/[I].
T1 construct: Crude extract of human polymorphonuclear leukocytes (PMN) containing elastase activity; from tissue; host or cells: human polymorphonuclear leukocytes (crude extract)
T1 sequence (P08246 30-267): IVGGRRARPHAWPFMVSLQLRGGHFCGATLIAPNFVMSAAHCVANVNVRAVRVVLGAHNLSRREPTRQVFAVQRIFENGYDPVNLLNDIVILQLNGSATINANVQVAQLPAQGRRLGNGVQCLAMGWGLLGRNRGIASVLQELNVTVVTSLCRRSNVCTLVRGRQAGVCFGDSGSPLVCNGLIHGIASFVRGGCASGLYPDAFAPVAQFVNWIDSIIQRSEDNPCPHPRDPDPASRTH
Assay type: biochemical
Protocol: Enzyme Assays for the Inhibition of Human Polymorphonuclear Leukocyte Elastase Via Hydrolysis of N-t-Boc-alanyl-alanyl-prolylalanine-p-nitroanilide (Boc-AAPAN) or N-t-Boc-alanyl-prolylvaline-p-nitro-anilide (Boc-AAPVN) Reagent:
0.05M TES (N-tris[hydroxymethyl]methyl-2-mino-ethanesulfonic acid) Buffer, pH 7.5.
0.2 mM Boc-AAPAN or Boc-AAPVN.
To prepare substrate, the solid was first dissolved in 10.0 ml DMSO. Buffer at pH 7.5 was then added to a final volume of 100 ml.
Crude extract of human polymorphonuclear leukocytes (PMN) containing elastase activity.
Inhibitors (azetidinones) to be tested dissolved in DMSO just before use.
To 1.0 ml of 0.2 mM Boc-AAPAN in a cuvette, 0.01-0.1 ml of DMSO with or without inhibitor was added. After mixing, a measurement was taken at 410 mµ to detect any spontaneous hydrolysis due to presence of test compound. 0.05 Milliliters of PMN extract was then added and the ΔOD/min at 410 mµ was measured and recorded. Beckman model 35 spectrophotometer was used.
Results were expressed to the nearest thousand ^kobs/I which is the second order rate constant in per mole per second for inactivation of the enzyme.
The elastase activity in the crude PMN extract may vary from one preparation to another. A control of each new batch is run, and the volume added in the assay procedure is adjusted according to activity.

**Q.** Which kinact/KI does the source give for `CCC[C@@H](NC(=O)N1C(=O)C(CC)(CC)[C@@H]1Oc1ccc(C(=O)O[C@@H](C)C(=O)O)cc1)c1ccc(C)cc1` [Compound 11, 1-carboxy-ethyl [S-(R*,S*)]4-((3,3-diethyl-1-(((1-(4-methylphenyl)butyl)amino)carbonyl)-4-oxo-2-azetidinyl)oxy) benzoate] here?
**A.** The kinact/KI was 1.13e+06 M⁻¹ s⁻¹.

**Q.** How did the kinact/KI turn out when `CCC[C@@H](NC(=O)N1C(=O)C(CC)(CC)[C@@H]1Oc1ccc(C(=O)O[C@@H](C)C(=O)N(CC)CC)cc1)c1ccc(C)cc1` [Compound 12, 2-(diethylamino)-1-methyl-2-oxoethyl[S-(R*,S*)]-4-((3,3-diethyl-1-(((1-(4-methyl-phenyl)butyl)amino)carbonyl)-4-oxo-2-azetidinyl)oxy) benzoate] was run?
**A.** Its kinact/KI is 2.82e+06 M⁻¹ s⁻¹.

**Q.** How did the kinact/KI turn out when `CCC[C@@H](NC(=O)N1C(=O)C(CC)(CC)[C@@H]1Oc1ccc(C(=O)OC(C)CN(C)C)cc1)c1ccc(C)cc1` (stereo partly drawn) [Compound 13, 1-Dimethylamino-2-propyl [S-(R*,S*)]-4-[[3,3-diethyl-1-[[[1-(4-methyl-phenyl)butyl]amino]carbonyl]-4-oxo-2-azetidinyl]oxy]benzoate] was run?
**A.** Its kinact/KI is 2.47e+06 M⁻¹ s⁻¹.

**Q.** How did the kinact/KI turn out when `CCC[C@@H](NC(=O)N1C(=O)C(CC)(CC)[C@@H]1Oc1ccc(C(=O)OCCCN(C)C)cc1)c1ccc(C)cc1` [Compound 14, 3-Dimethylamino-1-propyl [S-(R*,S*)]-4-[[3,3-diethyl-1-[[[1-(4-methyl-phenyl)butyl]amino]carbonyl]-4-oxo-2-azetidinyl]oxy]benzoate] was run?
**A.** Its kinact/KI is 2.86e+06 M⁻¹ s⁻¹.

**Q.** Which kinact/KI does the source give for `CCC[C@@H](NC(=O)N1C(=O)C(CC)(CC)[C@@H]1Oc1ccc(C(=O)OCC[N+](C)(C)[O-])cc1)c1ccc(C)cc1` [Compound 15] here?
**A.** Its kinact/KI is 2.16e+06 M⁻¹ s⁻¹.

**Q.** `CCC[C@@H](NC(=O)N1C(=O)C(CC)(CC)[C@@H]1Oc1ccc(C(=O)OCCN(CC)CC)cc1)c1ccc(C)cc1` [Compound 16, 2-Diethylaminoethyl [S-(R*,S*)]-4-[[3,3-diethyl-1-[[[1-(4-methyl-phenyl)butyl]amino]carbonyl]-4-oxo-2-azetidinyl]oxy]benzoate] was tested. Which kinact/KI did it give?
**A.** Its kinact/KI is 2.29e+06 M⁻¹ s⁻¹.

**Q.** How did the kinact/KI turn out when `CCC[C@@H](NC(=O)N1C(=O)C(CC)(CC)[C@@H]1Oc1ccc(C(=O)OCCN2CCOCC2)cc1)c1ccc(C)cc1` [Compound 17, 2-(1-[4-morpholino]ethyl) [S-(R*,S*)]-4-[[3,3-diethyl-1-[[[1-(4-methyl-phenyl)butyl]amino]carbonyl]-4-oxo-2-azetidinyl]oxy]benzoate] was run?
**A.** The kinact/KI was 4.73e+06 M⁻¹ s⁻¹.

**Q.** For `CCC[C@@H](NC(=O)N1C(=O)C(CC)(CC)[C@@H]1Oc1ccc(C(=O)OCCCCN(C)C)cc1)c1ccc(C)cc1` [Compound 18, 4-dimethylaminobutyl [S-(R*,S*)]-4-[[3,3-diethyl-1-[[[1-(4-methyl-phenyl)butyl]amino]carbonyl]-4-oxo-2-azetidinyl]oxy]benzoate], which kinact/KI is on record?
**A.** The kinact/KI was 1.93e+06 M⁻¹ s⁻¹.

**Q.** Which kinact/KI does the source give for `CCC[C@@H](NC(=O)N1C(=O)C(CC)(CC)[C@@H]1Oc1ccc(C(=O)OCC(=O)N2CCC[C@H]2C(=O)NCc2ccccc2)cc1)c1ccc(C)cc1` [Compound 19, [S-(R*,S*)] 1-(((4-((3,3-diethyl-1-(((1-(4-methylphenyl)butyl)amino)carbonyl-4-oxo-2-azetidinyl)oxy)benzoyl)oxy)acetyl-N-benzyl-L-prolinamide] here?
**A.** The kinact/KI was 4.96e+06 M⁻¹ s⁻¹.

**Q.** Which kinact/KI does the source give for `CCC[C@@H](NC(=O)N1C(=O)C(CC)(CC)[C@@H]1Oc1ccc(C(=O)OCC(C)(C)N(C)C)cc1)c1ccc(C)cc1` [Compound 20, 2-dimethylamino-2-methyl-1-propyl [S-(R*,S*)]-4-[[3,3-diethyl-1-[[[1-(4-methyl-phenyl)butyl]amino]carbonyl]-4-oxo-2-azetidinyl]oxy]benzoate] here?
**A.** Its kinact/KI is 1.47e+06 M⁻¹ s⁻¹.

**Q.** For `CCC[C@@H](NC(=O)N1C(=O)C(CC)(CC)[C@@H]1Oc1ccc(C(=O)OCCN(C(C)C)C(C)C)cc1)c1ccc(C)cc1` [Compound 21, 2-(diisopropylamino)ethyl [S-(R*,S*)]-4-[[3,3-diethyl-1-[[[1-(4-methyl-phenyl)butyl]amino]carbonyl]-4-oxo-2-azetidinyl]oxy]benzoate], which kinact/KI is on record?
**A.** The kinact/KI was 1.67e+06 M⁻¹ s⁻¹.

**Q.** For `CCC[C@@H](NC(=O)N1C(=O)C(CC)(CC)[C@@H]1Oc1ccc(C(=O)OCCN2CCN(C(=O)OCc3ccccc3)CC2)cc1)c1ccc(C)cc1` [Compound 22, Benzyl [S-(R*,S*)]-4-[2-[[4-[[3,3-diethyl-1-[[[1-(4-methylphenyl)butyl]amino]carbonyl]-4-oxo-2-azetidinyl]oxy]benzoyl]oxy]-ethyl]-1-Piperazine-carboxylate], which kinact/KI is on record?
**A.** The kinact/KI was 4.12e+06 M⁻¹ s⁻¹.

**Q.** For `CCCCN(CCCC)CCOC(=O)c1ccc(O[C@@H]2N(C(=O)N[C@H](CCC)c3ccc(C)cc3)C(=O)C2(CC)CC)cc1` [Compound 23, 2-(dibutylamino)ethyl [S-(R*,S*)]-4-[[3,3-diethyl-1-[[[1-(4-methyl-phenyl)butyl]amino]carbonyl]-4-oxo-2-azetidinyl]oxy]benzoate], which kinact/KI is on record?
**A.** The kinact/KI was 992000 M⁻¹ s⁻¹.

**Q.** `CCC[C@@H](NC(=O)N1C(=O)C(CC)(CC)[C@@H]1Oc1ccc(C(=O)OCCCCCCN(C)C)cc1)c1ccc(C)cc1` [Compound 24, [S-(R*,S*)]-6-(dimethylamino)hexyl-4-[[3,3-diethyl-1-[[[1-(4-methyl-phenyl)butyl]amino]carbonyl]-4-oxo-2-azetidinyl]oxy]-benzoate] was tested. Which kinact/KI did it give?
**A.** Its kinact/KI is 1.99e+06 M⁻¹ s⁻¹.

**Q.** For `CCC[C@@H](NC(=O)N1C(=O)C(CC)(CC)[C@@H]1Oc1ccc(C(=O)OCCN2CCNCC2)cc1)c1ccc(C)cc1` [Compound 25], which kinact/KI is on record?
**A.** The kinact/KI was 1.71e+06 M⁻¹ s⁻¹.

**Q.** For `CCC[C@@H](NC(=O)N1C(=O)C(CC)(CC)[C@@H]1Oc1ccc(C(=O)OCCN2CCN(C)CC2)cc1)c1ccc(C)cc1` [Compound 26, 2-(4-methyl-1-piperazinyl)ethyl[S-(R*,S*)]-4-[[3,3-diethyl-1-[[[1-(4-methyl-phenyl)butyl]amino]carbonyl]-4-oxo-2-azetidinyl]oxy]benzoate], which kinact/KI is on record?
**A.** Its kinact/KI is 4.68e+06 M⁻¹ s⁻¹.

**Q.** With `CCC[C@@H](NC(=O)N1C(=O)C(CC)(CC)[C@@H]1Oc1ccc(C(=O)OCCN2CCN(C(C)=O)CC2)cc1)c1ccc(C)cc1` [Compound 27] as the compound, how does the kinact/KI read?
**A.** Its kinact/KI is 3.26e+06 M⁻¹ s⁻¹.

**Q.** Which kinact/KI does the source give for `C=CCN(CC=C)CCOC(=O)c1ccc(O[C@@H]2N(C(=O)N[C@H](CCC)c3ccc(C)cc3)C(=O)C2(CC)CC)cc1` [Compound 29, 2-(di-2-propenylamino)ethyl [S-(R*,S*)]-4-[[3,3-diethyl-1-[[[1-(4-methylphenyl)butyl]amino]carbonyl]-4-oxo-2-azetidinyl]oxy]benzoate] here?
**A.** The kinact/KI was 891000 M⁻¹ s⁻¹.

**Q.** With `CCC[C@@H](NC(=O)N1C(=O)C(CC)(CC)[C@@H]1Oc1ccc(C(=O)OCC(c2ccccc2)N(C)C)cc1)c1ccc(C)cc1` (stereo partly drawn) [Compound 30, 2-(dimethylamino)-2-phenylethyl [S-(R*,S*)]-4-[[3,3-diethyl-1-[[[1-(4-methylphenyl)butyl]amino]carbonyl]-4-oxo-2-azetidinyl]oxy]benzoate] as the compound, how does the kinact/KI read?
**A.** Its kinact/KI is 656000 M⁻¹ s⁻¹.

**Q.** For `CCC[C@@H](NC(=O)N1C(=O)C(CC)(CC)[C@@H]1Oc1ccc(C(=O)OCCN(C)Cc2ccccc2)cc1)c1ccc(C)cc1` [Compound 31, 2-[methyl(phenylmethyl)amino]ethyl [S-(R*,S*)]-4-[[3,3-diethyl-1-[[[1-(4-methyl-phenyl)butyl]amino]carbonyl]-4-oxo-2-azetidinyl]oxy]benzoate], which kinact/KI is on record?
**A.** The kinact/KI was 1.18e+06 M⁻¹ s⁻¹.

**Q.** `CCC[C@@H](NC(=O)N1C(=O)C(CC)(CC)[C@@H]1Oc1ccc(CC(=O)OCCN(C)C)cc1)c1ccc(C)cc1` [Compound 32] was tested. Which kinact/KI did it give?
**A.** The kinact/KI was 1.99e+06 M⁻¹ s⁻¹.

**Q.** For `CCC[C@@H](NC(=O)N1C(=O)C(CC)(CC)[C@@H]1Oc1ccc(CC(=O)OCCCN(C)C)cc1)c1ccc(C)cc1` [Compound 33], which kinact/KI is on record?
**A.** Its kinact/KI is 1.15e+06 M⁻¹ s⁻¹.

**Q.** Which kinact/KI does the source give for `CCC[C@@H](NC(=O)N1C(=O)C(CC)(CC)[C@@H]1Oc1ccc(CC(=O)OCCN(CC)CC)cc1)c1ccc(C)cc1` [Compound 34] here?
**A.** The kinact/KI was 1.34e+06 M⁻¹ s⁻¹.

**Q.** With `CCC[C@@H](NC(=O)N1C(=O)C(CC)(CC)[C@@H]1Oc1ccc(CC(=O)OCCN2CCOCC2)cc1)c1ccc(C)cc1` [Compound 35] as the compound, how does the kinact/KI read?
**A.** Its kinact/KI is 1.72e+06 M⁻¹ s⁻¹.

**Q.** `CCC[C@@H](NC(=O)N1C(=O)C(CC)(CC)[C@@H]1Oc1ccc(CC(=O)OC(C)CN(C)C)cc1)c1ccc(C)cc1` (stereo partly drawn) [Compound 36] was tested. Which kinact/KI did it give?
**A.** The kinact/KI was 1.69e+06 M⁻¹ s⁻¹.

**Q.** `CCC[C@@H](NC(=O)N1C(=O)C(CC)(CC)[C@@H]1Oc1ccc(CC(=O)OCC(C)(C)N(C)C)cc1)c1ccc(C)cc1` [Compound 37] was tested. Which kinact/KI did it give?
**A.** The kinact/KI was 2.1e+06 M⁻¹ s⁻¹.

**Q.** With `CCC[C@@H](NC(=O)N1C(=O)C(CC)(CC)[C@@H]1Oc1ccc(CC(=O)OCC(=O)O)cc1)c1ccc(C)cc1` [Compound 38] as the compound, how does the kinact/KI read?
**A.** The kinact/KI was 1.01e+06 M⁻¹ s⁻¹.

**Q.** How did the kinact/KI turn out when `CCC[C@@H](NC(=O)N1C(=O)C(CC)(CC)[C@@H]1Oc1ccc(CC(=O)OCCN(C)Cc2ccccc2)cc1)c1ccc(C)cc1` [Compound 39] was run?
**A.** The kinact/KI was 751000 M⁻¹ s⁻¹.

**Q.** For `CCC[C@@H](NC(=O)N1C(=O)C(CC)(CC)[C@@H]1Oc1ccc(CC(=O)N(CCO)CCO)cc1)c1ccc(C)cc1` [Compound 40], which kinact/KI is on record?
**A.** Its kinact/KI is 1.24e+06 M⁻¹ s⁻¹.

Same assay, conditions: second order rate constant for inactivation of the enzyme, expressed to the nearest thousand; pH 7.5

**Q.** For `CCCC(NC(=O)N1C(=O)C(CC)(CC)C1Oc1ccc(C(=O)OCCN(c2ccccc2)c2ccccc2)cc1)c1ccc(C)cc1` (stereo not drawn) [Compound 28, 2-(diphenylamino)ethyl[S-(R*,S*)]-4-[[3,3-diethyl-1-[[[1-(4-methylphenyl)butyl]amino]carbonyl]-4-oxo-2-azetidinyl]oxy]benzoate], which “Kobs/[I]” value is on record?
**A.** Its value is 188,000 per mole per second.
